# From US12440489B2 (priority 2016, dated 2025)
# Assays:
# [1] = tested on: TH (tyrosine hydroxylase); test: CNS phosphoprotein profile, tyrosine hydroxylase phosphorylation at Ser40 in nucleus accumbens; format: in vivo, mice; details: mouse nucleus accumbens; for effect on tyrosine hydroxylase phosphorylation at Ser40 (in words): 3 mg/kg, 30 minutes or 60 minutes; for increase in TH phosphorylation: haloperidol 2 mg/kg, risperidone dose not given
# Protocol: (§1) A comprehensive molecular phosphorylation study is also carried out to examine the central nervous system (CNS) profile of the compounds of Example 1 and Example 3. The extent of protein phosphorylation for selected key central nervous system proteins is measured in mice nucleus accumbens.
# (§2) Mice were killed 30 minutes to 2 hours post-injection by focused microwave cranial irradiation, which preserves brain phosphoprotein as it exists at the time of death. Nucleus accumbens was then dissected from each mouse brain, sliced and frozen in liquid nitrogen. Samples were further prepared for phosphoprotein analysis via SDS-PAGE electrophoresis followed by phosphoprotein-specific immunoblotting, as described in Zhu H, et al., Brain Res. 2010 Jun 25; 1342:11-23. Phosphorylation at each site was quantified, normalized to total levels of the protein (non-phosphorylated), and expressed as percent of the level of phosphorylation in vehicle-treated control mice.
# 5-HT2 receptor = tested on: 5-HT2 receptor; parameters: species or system mice; details: mouse, in vivo; for block of DOI head twitch (in words): po
# ERK2 = test: CNS phosphoprotein profile, ERK2 phosphorylation at Thr183 and Tyr185 in nucleus accumbens; format: in vivo, mice; details: 3 mg/kg; mouse nucleus accumbens
# Protocol: as §1, §2
# NR2B = test: CNS phosphoprotein profile, NR2B phosphorylation at Tyr1472 in nucleus accumbens; format: in vivo, mice; details: 3 mg/kg; 30-60 minutes; mouse nucleus accumbens
# Protocol: as §1, §2
# GluR1 = test: CNS phosphoprotein profile, GluR1 phosphorylation at Ser845 in nucleus accumbens; format: in vivo, mice; details: 3 mg/kg; mouse nucleus accumbens
# Protocol: as §1, §2
# Mice = test: Mouse marble-burying study (OCD model); format: in vivo; details: for Marbles Buried: of 15 marbles, 30 min
# From the text: The marble burying test is used to measure repetitive and anxiety-related behavior in rodents. It is based on the observation that rats and mice will bury either harmful or harmless objects in their bedding, and it has been used as an animal model to measure the effect of pharmacological interventions in treatment of repetitive behavior disorders, such as OCD.
# MPEP is a selective mGluR5 glutamate receptor antagonist. […] Mice in groups (1) are orally administered the vehicle, and mice in group (4) are given an intraperitoneal injection of MPEP just prior to the start of the test.
# The test is conducted in rectangular cages with 4-5 cm of wood chip bedding in a room with the window shades lowered and the door closed to minimize distractions. Fifteen clean marbles are evenly spaced on top of the bedding in three rows of five marbles. One mouse is placed in each cage. The mouse and cage is left undisturbed for 30 minutes. At the end of the test, the mouse is removed and the number of marbles buried to at least ⅔ of their depth is counted.
# Mu opiate receptor = Mu opiate receptor (Homo sapiens, UniProt P35372); format: binding
# Mu opiate receptor, sequence (P35372 whole entry): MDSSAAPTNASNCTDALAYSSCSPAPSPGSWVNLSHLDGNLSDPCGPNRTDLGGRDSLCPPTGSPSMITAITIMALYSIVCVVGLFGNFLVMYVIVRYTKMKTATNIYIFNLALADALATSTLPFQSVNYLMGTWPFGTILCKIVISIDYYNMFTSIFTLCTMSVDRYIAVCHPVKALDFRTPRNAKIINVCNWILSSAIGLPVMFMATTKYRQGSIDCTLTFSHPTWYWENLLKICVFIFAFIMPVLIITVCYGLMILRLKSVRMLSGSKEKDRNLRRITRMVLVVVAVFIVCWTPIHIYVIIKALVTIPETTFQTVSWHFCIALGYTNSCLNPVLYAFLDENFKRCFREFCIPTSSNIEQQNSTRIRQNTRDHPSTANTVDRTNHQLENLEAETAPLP
smiles,measurement,setting,value
"O=C1CN2c3c(cccc3[C@@H]3CN(CCCC(=O)c4ccc(F)cc4)CC[C@@H]32)N1 [Example 1, 4-((6bR,10aS)-2-Oxo-2,3,6b,9,10,10a-Hexahydro-1H,7H-Pyrido[3′,4′:4,5]Pyrrolo[1,2,3-De]Quinoxalin-8-Yl)-1-(4-Fluoro-Phenyl)-Butan-1-One]",effect on tyrosine hydroxylase phosphorylation at Ser40 (in words),[1],neither the compound of Example 1 nor of Example 3 has a significant effect
same,EC50 for reducing DOI-induced head twitches,5-HT2 receptor,"0.23 mg/kg, p.o."
same,block of DOI head twitch (in words),5-HT2 receptor,potently block DOI head twitch
same,effect on ERK2 phosphorylation at Thr183 and Tyr185 (in words),ERK2,slight decrease
same,effect on NR2B phosphorylation at Tyr1472 (in words),NR2B,neither the compound of Example 1 nor of Example 3 has a significant effect
same,effect on GluR1 phosphorylation at Ser845 (in words),GluR1,slight increase
"O=C1CN2c3c(cccc3[C@@H]3CN(CCCOc4ccc(F)cc4)CC[C@@H]32)N1 [Example 3, (6bR,10aS)-8-(3-(4-Fluorophenoxy)Propyl)-6b,7,8,9,10,10a-Hexahydro-1H-Pyrido[3′,4′:4,5]Pyrrolo[1,2,3-De]Quinoxalin-2(3H)-One]",effect on tyrosine hydroxylase phosphorylation at Ser40 (in words),[1],neither the compound of Example 1 nor of Example 3 has a significant effect
same,EC50 for reducing DOI-induced head twitches,5-HT2 receptor,"0.44 mg/kg, p.o."
same,block of DOI head twitch (in words),5-HT2 receptor,potently block DOI head twitch
same,effect on ERK2 phosphorylation at Thr183 and Tyr185 (in words),ERK2,slight decrease
same,effect on NR2B phosphorylation at Tyr1472 (in words),NR2B,neither the compound of Example 1 nor of Example 3 has a significant effect
same,Marbles Buried,Mice; 0.3 mg/kg orally 30 minutes prior to the test,9.3
same,decrease in marble burying compared to the control (in words),"Mice; 0.3 mg/kg, p <0.01",statistically significant decrease
same,effect on GluR1 phosphorylation at Ser845 (in words),GluR1,slight increase
"CN1CCN2c3c(cccc31)[C@@H]1CN(CCCC(=O)c3ccc(F)cc3)CC[C@@H]12 [Formula A, reference compound]",activity at the Mu opiate receptor (in words),Mu opiate receptor,not active
"CN1CCN2c3c(cccc31)[C@@H]1CN(CCCC(O)c3ccc(F)cc3)CC[C@@H]12 (stereo partly shown) [Formula B, reference compound]",EC50 for reducing DOI-induced head twitches,5-HT2 receptor,"0.31 mg/kg, p.o."
"Cc1cccc(C#Cc2ccccc2)n1 [MPEP, 2-methyl-6-(phenylethynyl)pyridine, reference compound]",Marbles Buried,Mice; 20 mg/kg intraperitoneal just prior to the test,0.2
"O=C(CCCN1CCC(O)(c2ccc(Cl)cc2)CC1)c1ccc(F)cc1 [haloperidol, reference compound]",increase in TH phosphorylation,[1],greater than 400%
"Cc1nc2n(c(=O)c1CCN1CCC(c3noc4cc(F)ccc34)CC1)CCCC2 [risperidone, reference compound]",increase in TH phosphorylation,[1],greater than 500%
